Patent US12285395B2, “Pharmaceutical composition for preventing or treating allodynia caused by anticancer agents” (UNIVERSITY-INDUSTRY COOPERATION GROUP OF KYUNG HEE …, priority 2018, dated 2025)

Key:
[1] = system: oxaliplatin-induced mechanical allodynia; assay: von Frey filament test (up-down method), oxaliplatin-induced mechanical allodynia, intraperitoneal administration; format: in vivo, Sprague Dawley (SD) rats
Procedure: (§1) Cinnamic acid (trans-cinnamic acid, Wako Pure Chemical Industries, Osaka, Japan) and cinnamaldehyde (Wako Pure Chemical Industries, Osaka, Japan) were dissolved in 10% dimethyl sulfoxide (DMSO, Sigma) (adjusted to pH 7 with 2 M HCl and 5 M NaOH) and 1% Tween 20 (Sigma), respectively. The final volume of 10% DMSO and 1% Tween 20 used in the experiment was […] rat. Cinnamic acid and cinnamaldehyde (10 mg/kg, 20 mg/kg, and 40 mg/kg) (i.p.) at different concentrations were administered to rats with cold allodynia and mechanical allodynia.
(§2) Seven-week-old male Sprague Dawley (SD) rats (180 g to 210 g, 95 rats total, Young Bio, Gyeonggi, Korea) were fed freely with feed and water in cages. The room temperature was maintained at 23±2° C. and a 12 h/12 h contrast cycle was maintained. All procedures described in the present disclosure were approved by the Animal Care and Use Committee of Kyunghee University (KHUASP[SE]-18-153) and followed the guidelines of the International Pain Research Association.
(§3) In order to measure cold allodynia and mechanical allodynia, according to a previous method (Flatters, S J; Bennett, G J Ethosuximide reverses paclitaxel- and vincristine-induced painful peripheral neuropathy. Pain 2004, 109, 150-161), an acetone drop test and a von Frey filament test (up-down method, Linton Instrumentation, Norfolk, UK) were performed, respectively. The rats were trained for one week before the start of the experiment to adapt to the touch and the experimental procedure. The rats were stabilized for 30 min before testing in a clear plastic box (20 cm×20 cm×14 cm) with a wire mesh bottom, while not recognizing the injection of oxaliplatin and other drugs.
(§4) For the mechanical allodynia test, paw withdrawal thresholds were measured in the right hind paw using a von Frey filament. Dixon's up-down method and Chaplan's calculation method were used, and a withdrawal threshold of 15 g was measured as a cut-off. In order to confirm the effects of cinnamaldehyde and cinnamic acid at different concentrations over time, the behavioral experiment was performed before injection of cinnamic acid and cinnamaldehyde (time point of 0 min) and at time points of 30 min, 60 min, and 120 min after injection.
(§5) Oxaliplatin (Wako Pure Chemical Industries, Osaka, Japan) was dissolved in a 5% glucose solution at a concentration of 2 mg/mL and injected intraperitoneally at a dose of 6 mg/kg. The same volume of 5% glucose solution (i.p.) was administered to a control.
(§6) All data are expressed as mean±S.E.M. (Standard error of the mean). The data in FIG. 4 was analyzed by a paired t-test (FIGS. 4A and 4B) or an unpaired t-test (FIG. 4C). The data in FIGS. 5 and 6 were expressed as mean±S.E.M. and analyzed by a Bonferroni post-test after one-way ANOVA to evaluate a statistical difference between groups. The data in FIG. 7A were analyzed using Dunnett's multiple comparisons test after two-way ANOVA. The 95% reliability was considered to be statistically significant.

[2] = system: oxaliplatin-induced cold allodynia; assay: Acetone drop test, oxaliplatin-induced cold allodynia, intraperitoneal administration; format: in vivo, Sprague Dawley (SD) rats; settings: for effect on oxaliplatin-induced cold allodynia: all three doses 10, 20 and 40 mg/kg i.p., 30, 60, 120 min after injection (FIG. 5A, FIG. 6)
Procedure: as §1, §2, §3
Acetone was dripped 5 times on the right hind paw, and the total frequency of licking and shaking of the soles was measured as an average per time.
as §4, §5, §6

[3] = system: mechanical allodynia induced by paclitaxel; assay: Mechanical allodynia (von Frey filament 0.4 g), paclitaxel animal model, oral cinnamic acid; format: in vivo, c57/bl6 mice; settings: mice
Procedure: Six-week-old mice (c57/bl6 mice) were prepared as an experimental animal. Paclitaxel (Sigma-Aldrich) dissolved at a concentration of 6 mg/mL in a 1:1 solution of Cremophor EL and ethanol was diluted to a concentration of 2 mg/mL and intraperitoneally injected 4 times at 2 mg/kg. The dosage was administered every other day on days 0, 2, 4, and 6. Significant pain was observed from about 10 days after the first dosage. The number of reactions was recorded by stimulating the soles of both hind paws of the experimental animal 10 times using a von Frey filament at a pressure of 0.4 g. The behaviors that are criteria for recording are an avoidance reaction and a behavior of licking the soles of the paw. The recording for both paws was averaged and confirmed. As a pre-behavioral experiment, 50 mg/kg and 100 mg/kg of cinnamic acid was orally administered to experimental animals induced with allodynia, and the effects after 1 h and 2 h were confirmed.

[4] = system: cold allodynia induced by paclitaxel; assay: Cold allodynia (acetone application), paclitaxel animal model, oral cinnamic acid; format: in vivo, c57/bl6 mice
Procedure: Six-week-old mice (c57/bl6 mice) were prepared as an experimental animal. Paclitaxel (Sigma-Aldrich) dissolved at a concentration of 6 mg/mL in a 1:1 solution of Cremophor EL and ethanol was diluted to a concentration of 2 mg/mL and intraperitoneally injected 4 times at 2 mg/kg. The dosage was administered every other day on days 0, 2, 4, and 6. Significant pain was observed from about 10 days after the first dosage. The reaction that occurred by applying about 20 μL of acetone to the soles of both rear paws of the experimental animal was observed and recorded for about 15 s. Behaviors that are criteria for recording are an avoidance reaction, a behavior of shaking the soles of the paw, and a behavior of licking the soles of the paw. The evaluation was repeated a total of three times, and the average of the number of recorded behaviors was confirmed. As a pre-behavioral experiment, 50 mg/kg and 100 mg/kg of cinnamic acid was orally administered to experimental animals induced with allodynia, and the effects after 1 h and 2 h were confirmed.

[5] = system: mechanical allodynia induced by oxaliplatin; assay: Mechanical allodynia (von Frey filament 0.4 g), oxaliplatin animal model, oral cinnamic acid; format: in vivo, c57/bl6 mice; settings: mice, 10 mg/kg oral (FIG. 1)
Procedure: (§7) Six-week-old mice (c57/bl6 mice) were prepared as an experimental animal.
(§8) Oxaliplatin (Sigma-Aldrich) dissolved in a 5% glucose solution at a concentration of 2 mg/mL was singly administered intraperitoneally to the experimental animal in an amount of 6 mg/kg. Significant pain was observed from about 3 days after intraperitoneal administration.
The number of reactions was recorded by stimulating the soles of both hind paws of the experimental animal 10 times using a von Frey filament at a pressure of 0.4 g.
The behaviors that are criteria for recording are an avoidance reaction and a behavior of licking the soles of the paw. The recording for both paws was averaged and confirmed.
(§9) Experimental animals induced with allodynia were selected through a pre-behavioral experiment, and the effects were confirmed at 2 h after oral administration of 10 mg/kg of cinnamic acid.

[6] = system: cold allodynia induced by oxaliplatin; assay: Cold allodynia (acetone application), oxaliplatin animal model, oral cinnamic acid; format: in vivo, c57/bl6 mice
Procedure: as §7, §8
The reaction that occurred by applying about 20 μL of acetone to the soles of both rear paws of the experimental animal was observed and recorded for about 15 s.
Behaviors that are criteria for recording are an avoidance reaction, a behavior of shaking the soles of the paw, and a behavior of licking the soles of the paw. The evaluation was repeated a total of three times, and the average of the number of recorded behaviors was confirmed.
as §9

[7] = system: spinal WDR neurons; assay: In vivo extracellular recording of spinal WDR neurons after oxaliplatin; parameters: species or system Sprague Dawley (SD) rats
Procedure: as §2
Oxaliplatin (Wako Pure Chemical Industries, Osaka, Japan) was dissolved in a 5% glucose solution at a concentration of 2 mg/mL and injected intraperitoneally at a dose of 6 mg/kg. The same volume of 5% glucose solution (i.p.) was administered to a control. […]
as §6, with “The 95% reliability was considered to be statistically significant.” left out

[8] = system: mechanical allodynia induced by vincristine; assay: Mechanical allodynia (von Frey filament 0.4 g), vincristine animal model, oral cinnamic acid; format: in vivo, c57/bl6 mice; settings: mice
Procedure: Six-week-old mice (c57/bl6 mice) were prepared as an experimental animal. Vincristine at a concentration of 1 mg/mL was injected intraperitoneally for 7 consecutive days at 0.1 mg/kg. Significant pain was observed from about 10 days after the first injection. The number of reactions was recorded by stimulating the soles of both hind paws of the experimental animal 10 times using a von Frey filament at a pressure of 0.4 g. The behaviors that are criteria for recording are an avoidance reaction and a behavior of licking the soles of the paw. The recording for both paws was averaged and confirmed. Experimental animals induced with allodynia were selected through a pre-behavioral experiment and orally administered with 50 mg/kg and 100 mg/kg of cinnamic acid, and the effects after 1 h and 2 h were confirmed.

[9] = system: cold allodynia induced by vincristine; assay: Cold allodynia (acetone application), vincristine animal model, oral cinnamic acid; format: in vivo, c57/bl6 mice
Procedure: Six-week-old mice (c57/bl6 mice) were prepared as an experimental animal. Vincristine at a concentration of 1 mg/mL was injected intraperitoneally for 7 consecutive days at 0.1 mg/kg. Significant pain was observed from about 10 days after the first injection. The reaction that occurred by applying about 20 μL of acetone to the soles of both rear paws of the experimental animal was observed and recorded for about 15 s. Behaviors that are criteria for recording are an avoidance reaction, a behavior of shaking the soles of the paw, and a behavior of licking the soles of the paw. The evaluation was repeated a total of three times, and the average of the number of recorded behaviors was confirmed. Experimental animals induced with allodynia were selected through a pre-behavioral experiment and orally administered with 50 mg/kg and 100 mg/kg of cinnamic acid, and the effects after 1 h and 2 h were confirmed.

[10] = 10, 20 and 40 mg/kg i.p., 30, 60, 120 min after injection (FIG. 5B, FIG. 6)

O=CC=Cc1ccccc1 [cinnamaldehyde, reference compound]
effect on oxaliplatin-induced mechanical allodynia [1, 10]: did not have relief effects | effect on oxaliplatin-induced cold allodynia [2]: did not have relief effects

O=C(O)/C=C/c1ccccc1 [cinnamic acid]
effect on oxaliplatin-induced mechanical allodynia ([1]; 10 mg/kg i.p., 60 min after injection (FIG. 5B)): remarkable effect | anti-allodynic effect on mechanical allodynia ([1]; 20 mg/kg i.p., all time points, compared with 10 and 40 mg/kg (FIG. 5B)): strongest anti-allodynic effect among the three doses | effect on oxaliplatin-induced mechanical allodynia [1, 10]: significantly alleviated | pain relief effect on mechanical allodynia ([3]; 50 mg/kg oral (FIG. 2)): no significant pain relief effect | pain relief effect on mechanical allodynia compared to control ([3]; 100 mg/kg oral (FIG. 2)): no significant pain relief effect | time after administration up to which pain relief effect on cold allodynia was shown ([4]; high dose 100 mg/kg p.o.): up to 1 h | pain relief effect on cold allodynia ([4]; mice, 50 mg/kg oral (FIG. 2)): no significant pain relief effect | pain relief effect on cold allodynia compared to control ([4]; mice, 100 mg/kg oral, after 1 h (FIG. 2)): significant pain relief effect | pain relief effect on mechanical allodynia compared to control (vehicle) [5]: no significant pain relief effect | time after administration up to which pain relief effect on cold allodynia was shown ([6]; low dose 10 mg/kg p.o.): up to 2 h | pain relief effect on cold allodynia compared to control (vehicle) ([6]; mice, 10 mg/kg oral, 2 h after administration (FIG. 1)): significant pain relief effect | increased activity of WDR neurons after oxaliplatin injection (brush, press, pinch, acetone drop stimulations) ([7]; 20 mg/kg i.p., day 4 after oxaliplatin, vs 10% DMSO control (FIGS. 7A to 7D)): significantly decreased | pain relief effect on mechanical allodynia ([8]; 50 mg/kg oral (FIG. 3)): no significant pain relief effect | pain relief effect on mechanical allodynia compared to control ([8]; 100 mg/kg oral (FIG. 3)): no significant pain relief effect | time after administration up to which pain relief effect on cold allodynia was shown ([9]; high dose 100 mg/kg p.o.): up to 1 h | pain relief effect on cold allodynia ([9]; mice, 50 mg/kg oral (FIG. 3)): no significant pain relief effect | pain relief effect on cold allodynia compared to control ([9]; mice, 100 mg/kg oral, after 1 h (FIG. 3)): significant pain relief effect | time point at which the effect on cold allodynia disappeared ([2]; 10 mg/kg i.p. (FIG. 5A)): 120 min | pain relief effect on cold allodynia of 20 mg/kg relative to 40 mg/kg ([2]; 20 mg/kg i.p. vs 40 mg/kg i.p. (control vs. 20 mg/kg p<0.001, 40 mg/kg p<0.05) (FIG. 5A)): slightly stronger | effect on oxaliplatin-induced cold allodynia [2]: had effects on cold allodynia | optimal dose for alleviating cold allodynia and mechanical allodynia caused by oxaliplatin ([2]; intraperitoneal administration, doses tested 10, 20, 40 mg/kg): 20 mg/kg

O=C1[O][Pt]2([NH][C@@H]3CCCC[C@H]3[NH]2)[O]C1=O [oxaliplatin, reference compound]
induction of mechanical allodynia (von Frey) ([1]; oxaliplatin 6 mg/kg i.p. single injection, day 4, p<0.001 vs before (FIG. 4B)): significantly induced | number of spike responses of WDR neurons to mechanical (brush, press, pinch) and cold (acetone drop) stimulations ([7]; after oxaliplatin 6 mg/kg i.p. vs 5% glucose control (FIGS. 4C to 4F)): significantly increased | induction of cold allodynia (acetone drop) ([2]; oxaliplatin 6 mg/kg i.p. single injection, day 4, p<0.001 vs before (FIG. 4A)): significantly induced
